Measured values taken from PMC5363247 (Angewandte Chemie (International Ed. in English), 2017).

Key:
factor Xa [1] = biological target: T1, factor Xa (Homo sapiens, UniProt P00742); experiment: factor Xa enzyme activity; format: biochemical; conditions: initial rates, Michaelis-Menten fit
factor Xa [2] = biological target: T1, factor Xa; experiment: fragment ligation assay, detection via biochemical assay; conditions: read-out: inhibition of factor Xa

T1 sequence (P00742 235-488 limits assumed): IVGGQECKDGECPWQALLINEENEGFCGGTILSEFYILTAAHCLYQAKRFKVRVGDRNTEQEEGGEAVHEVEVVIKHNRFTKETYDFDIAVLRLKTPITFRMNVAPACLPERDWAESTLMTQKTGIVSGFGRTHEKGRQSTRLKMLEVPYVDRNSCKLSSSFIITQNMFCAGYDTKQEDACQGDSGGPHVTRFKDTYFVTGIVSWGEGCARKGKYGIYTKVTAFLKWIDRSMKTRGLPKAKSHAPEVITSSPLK
T1 sequence (P00742 41-179 partner limits assumed): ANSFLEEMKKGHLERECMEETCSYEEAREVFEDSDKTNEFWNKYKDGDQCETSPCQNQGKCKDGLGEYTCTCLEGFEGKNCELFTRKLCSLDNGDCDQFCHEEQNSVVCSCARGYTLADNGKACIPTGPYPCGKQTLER

| Compound | K M of fluorogenic substrate (factor Xa [1]) [µM] | inhibition at 285 µM (factor Xa [2]) [%] |
| --- | --- | --- |
| 7‐(N‐Boc‐leucinyl‐glycinyl‐arginyl)‐7‐amino‐4‐methylcoumarin | 76 | – |
| N=C(N)c1ccc(CN)cc1 [compound 14, 4‐Aminomethylbenzamidine] | – | 20 |
